For one experiment, the system named is Kuramochi cells. The experiment is described as follows: IncuCyte cell proliferation assay. In kind it is cell-based. Conditions: Kuramochi cells labeled with mApple-H2B, cell count 0 to 72 hours, 20 μM top concentration; read-out: IncuCyte Kuramochi RB-WT: IC50. An outline of the steps: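 Kuramochi cells expressing mApple-H2B were treated with a 10-point, ½-log dilution series (top 20 μM). Fluorescent nuclei were counted by IncuCyte imaging at 0 and 72 h. The fold change in cell count was normalized to DMSO wells and fitted to dose-response curves to give […].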

The target in a further experiment is CDK2/Cyclin E1 (Homo sapiens, UniProt P24941). Kind of experiment: ADP-Glo Luminescent Kinase Assay (CDK2/E1-37C). In kind it is biochemical. Conditions: 0.18 nM CDK2/Cyclin E1, 100 μM ATP, 1.5 μM Histone H1, 37° C., 60 min pre-incubation; read-out: ADPGLO (CDK2/E1-37C): IC50. The method in brief: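 Human CDK2/Cyclin E1 preincubated with inhibitor 60 min at 37 °C, then reacted 90 min at 37 °C with final 0.18 nM enzyme, 100 μM ATP, 1.5 μM Histone H1 in HEPES pH 7.5 buffer. ADP formed read by ADP-Glo luminescence; IC50 from four-parameter fit.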
(In general: In ADP-Glo the light output rises with the ADP produced.)

Turning to `C[C@@H](OCC1CCOCC1)[C@H](NC(=O)[C@@H]1CN(C(=O)c2cnc(O)cn2)CC12CN(C(=O)C1(C(F)(F)F)CC1)C2)C(=O)N1CCC(C(F)(F)F)CC1` [Example I-78, (S)-6-(5-hydroxypyrazine-2-carbonyl)-N-((2S,3R)-1-oxo-3-((tetrahydro-2H-pyran-4-yl)methoxy)-1-(4-(trifluoromethyl)piperidin-1-yl)butan-2-yl)-2-(1-(trifluoromethyl)cyclopropane-1-carbonyl)-2,6-diazaspiro[3.4]octane-8-carboxamide], the IC50 in the experiment with Kuramochi cells is > 20 µM; on CDK2/Cyclin E1, < 0.5 µM.
On the same counts, the results for `C[C@@H](OCC1CCOCC1)[C@H](NC(=O)[C@@H]1CN(C(=O)c2cnn(Cc3ccc(C(F)(F)F)cc3)c2)CC12CN(C(=O)C1(C(F)(F)F)CC1)C2)C(=O)N1CCC(c2nccs2)CC1` [Example I-79, (S)—N-((2S,3R)-1-oxo-3-((tetrahydro-2H-pyran-4-yl)methoxy)-1-(4-(thiazol-2-yl)piperidin-1-yl)butan-2-yl)-6-(1-(4-(trifluoromethyl)benzyl)-1H-pyrazole-4-carbonyl)-2-(1-(trifluoromethyl)cyclopropane-1-carbonyl)-2,6-diazaspiro[3.4]octane-8-carboxamide] are 0.5 to 5 µM and < 0.5 µM.
Turning to `C[C@@H](OCC1(C(F)(F)F)CC1)[C@H](NC(=O)[C@@H]1CN(C(=O)c2cnn(Cc3ccc(C(F)(F)F)cc3)c2)CC12CN(C(=O)C1(C(F)(F)F)CC1)C2)C(=O)N1CCC(c2nccs2)CC1` [Example I-80, (S)—N-((2S,3R)-1-oxo-1-(4-(thiazol-2-yl)piperidin-1-yl)-3-((1-(trifluoromethyl)cyclopropyl)methoxy)butan-2-yl)-6-(1-(4-(trifluoromethyl)benzyl)-1H-pyrazole-4-carbonyl)-2-(1-(trifluoromethyl)cyclopropane-1-carbonyl)-2,6-diazaspiro[3.4]octane-8-carboxamide], the IC50 in the experiment with Kuramochi cells and at CDK2/Cyclin E1 was 0.5 to 5 µM each time.
Regarding `C[C@@H](OCC12CCC(CC1)OC2)[C@H](NC(=O)[C@@H]1CN(C(=O)c2cnn(Cc3ccc(C(F)(F)F)cc3)c2)CC12CN(C(=O)C1(C(F)(F)F)CC1)C2)C(=O)N1CCC(c2ccc(C(=O)O)c(O)c2)CC1` [Example I-81, 4-(1-(O-((2-Oxabicyclo[2.2.2]octan-4-yl)methyl)-N—((S)-6-(1-(4-(trifluoromethyl)benzyl)-1H-pyrazole-4-carbonyl)-2-(1-(trifluoromethyl)cyclopropane-1-carbonyl)-2,6-diazaspiro[3.4]octane-8-carbonyl)-L-threonyl)piperidin-4-yl)-2-hydroxybenzoic acid], the IC50 in the experiment on Kuramochi cells is > 20 µM; on CDK2/Cyclin E1 it was < 0.5 µM.
For the compound `C[C@@H](OCC12CCC(CC1)OC2)[C@H](NC(=O)[C@@H]1CN(C(=O)c2cnn(Cc3ccc(C(F)(F)F)cc3C(=O)O)c2)CC12CN(C(=O)C1(C(F)(F)F)CC1)C2)C(=O)N1CCC(c2nccs2)CC1` [Example I-83, ((4-((S)-8-(((2S,3R)-3-((2-oxabicyclo[2.2.2]octan-4-yl)methoxy)-1-oxo-1-(4-(thiazol-2-yl)piperidin-1-yl)butan-2-yl)carbamoyl)-2-(1-(trifluoromethyl)cyclopropane-1-carbonyl)-2,6-diazaspiro[3.4]octane-6-carbonyl)-1H-pyrazol-1-yl)methyl)-5-(trifluoromethyl)benzoic acid], the IC50 in the experiment with Kuramochi cells was > 20 µM; at CDK2/Cyclin E1 it was < 0.5 µM.
On to `COC(=O)CCNC(=O)[C@@H](NC(=O)[C@@H]1CN(C(=O)c2cnn(Cc3ccc(C(F)(F)F)cc3)c2)CC12CN(C(=O)C1(C(F)(F)F)CC1)C2)[C@@H](C)OCC12CCC(CC1)OC2` [Example I-84], for which the figures for the IC50 with Kuramochi cells and on CDK2/Cyclin E1 were < 0.5 µM and 0.5 to 5 µM, respectively.
The matching figures for `C[C@@H](OCC12CCC(CC1)OC2)[C@H](NC(=O)[C@@H]1CN(C(=O)c2cnn(Cc3ccc(C(F)(F)F)cc3)c2)CC12CN(C(=O)C1(C(F)(F)F)CC1)C2)C(=O)NS(=O)(=O)c1ccc(F)cc1` [Example I-85, (S)—N-((2S,3R)-3-((2-oxabicyclo[2.2.2]octan-4-yl)methoxy)-1-((4-fluorophenyl)sulfonamido)-1-oxobutan-2-yl)-6-(1-(4-(trifluoromethyl)benzyl)-1H-pyrazole-4-carbonyl)-2-(1-(trifluoromethyl)cyclopropane-1-carbonyl)-2,6-diazaspiro[3.4]octane-8-carboxamide]: > 20 µM and < 0.5 µM.
The matching figures for `C[C@@H](OCC12CCC(CC1)OC2)[C@@H](COC1CCC(c2ccc(C(=O)O)cc2)CC1)NC(=O)[C@@H]1CN(C(=O)c2cnn(Cc3ccc(C(F)(F)F)cc3)c2)CC12CN(C(=O)C1(C(F)(F)F)CC1)C2` (stereo partly drawn) [Example I-86, 4-(4-((2R,3R)-3-(2-oxabicyclo[2.2.2]octan-4-ylmethoxy)-2-((S)-6-(1-(4-(trifluoromethyl)benzyl)-1H-pyrazole-4-carbonyl)-2-(1-(trifluoromethyl)cyclopropanecarbonyl)-2,6-diazaspiro[3.4]octane-8-carboxamido)butoxy)cyclohexyl)benzoic acid]: > 20 µM and 0.5 to 5 µM.
As for `C[C@@H](OCC12CCC(CC1)OC2)[C@H](NC(=O)[C@@H]1CN(C(=O)c2cnn(Cc3ccccc3)c2)CC12CN(C(=O)C1(C(F)(F)F)CC1)C2)C(=O)N1CCN(c2ccc(C(=O)O)cc2)CC1` [Example I-87, 4-(4-(O-((2-oxabicyclo[2.2.2]octan-4-yl)methyl)-N—((S)-6-(1-benzyl-1H-pyrazole-4-carbonyl)-2-(1-(trifluoromethyl)cyclopropane-1-carbonyl)-2,6-diazaspiro[3.4]octane-8-carbonyl)-L-threonyl)piperazin-1-yl)benzoic acid], the IC50 is 5 to 20 µM with Kuramochi cells and < 0.5 µM at CDK2/Cyclin E1.
On the same counts, the results for `C[C@@H](OCC12CCC(CC1)OC2)[C@H](NC(=O)[C@@H]1CN(C(=O)c2cnn(Cc3ccccc3C(=O)O)c2)CC12CN(C(=O)C1(C(F)(F)F)CC1)C2)C(=O)N1CCC(c2nccs2)CC1` [Example I-88, 2-((4-((S)-8-(((2S,3R)-3-(2-oxabicyclo[2.2.2]octan-4-ylmethoxy)-1-oxo-1-(4-(thiazol-2-yl)piperidin-1-yl)butan-2-yl)carbamoyl)-2-(1-(trifluoromethyl)cyclopropanecarbonyl)-2,6-diazaspiro[3.4]octane-6-carbonyl)-1H-pyrazol-1-yl)methyl)benzoic acid] are > 20 µM and < 0.5 µM.
The matching figures for `C[C@@H](OCC12CCC(CC1)OC2)[C@H](NC(=O)[C@@H]1CN(C(=O)c2cnc(O)cn2)CC12CN(C(=O)C1CC1(C)C)C2)C(=O)N1CCC(c2ccc(C(F)(F)F)c(C(=O)O)c2)CC1` (stereo partly drawn) [Example I-90, 5-(1-(O-((2-oxabicyclo[2.2.2]octan-4-yl)methyl)-n-((s)-2-((s)-2,2-dimethylcyclopropane-1-carbonyl)-6-(5-hydroxypyrazine-2-carbonyl)-2,6-diazaspiro[3.4]octane-8-carbonyl)-L-threonyl)piperidin-4-yl)-2-(trifluoromethyl)benzoic acid]: > 20 µM and < 0.5 µM.
Regarding `C[C@@H](OCC12CCC(CC1)OC2)[C@H](NC(=O)[C@@H]1CN(C(=O)c2cnn(Cc3ccc(C(F)(F)F)cc3)c2)CC12CN(C(=O)C1(C(F)(F)F)CC1)C2)C(=O)N1CCC(c2nccs2)CC1` [Example I-91, (S)—N-((2S,3R)-3-(2-oxabicyclo[2.2.2]octan-4-ylmethoxy)-1-oxo-1-(4-(thiazol-2-yl)piperidin-1-yl)butan-2-yl)-6-(1-(4-(trifluoromethyl)benzyl)-1H-pyrazole-4-carbonyl)-2-(1-(trifluoromethyl)cyclopropanecarbonyl)-2,6-diazaspiro[3.4]octane-8-carboxamide], the IC50 with Kuramochi cells was 0.5 to 5 µM; on CDK2/Cyclin E1, < 0.5 µM.
The matching figures for `C[C@@H](OCC12CCC(CC1)OC2)[C@H](NC(=O)[C@@H]1CN(C(=O)c2cnn(Cc3ccc(C(F)(F)F)cc3)c2)CC12CN(C(=O)C1(C(F)(F)F)CC1)C2)C(=O)N1CCC(c2ccc(C(=O)O)nc2)CC1` [Example I-92, 5-(1-(O-((2-oxabicyclo[2.2.2]octan-4-yl)methyl)-N—((S)-6-(1-(4-(trifluoromethyl)benzyl)-1H-pyrazole-4-carbonyl)-2-(1-(trifluoromethyl)cyclopropane-1-carbonyl)-2,6-diazaspiro[3.4]octane-8-carbonyl)-L-threonyl)piperidin-4-yl)picolinic acid]: > 20 µM and < 0.5 µM.
The matching figures for `C[C@@H](OCC12CCC(CC1)OC2)[C@H](NC(=O)[C@@H]1CN(C(=O)c2cnn(Cc3ccc(C(F)(F)F)cc3)c2)CC12CN(C(=O)C1(C(F)(F)F)CC1)C2)C(=O)N1CCC(c2cc(F)c(C(=O)O)c(F)c2)CC1` [Example I-94]: > 20 µM and < 0.5 µM.
On the same counts, the results for `C[C@@H](OCC12CCC(CC1)OC2)[C@H](NC(=O)[C@@H]1CN(C(=O)c2cnn(Cc3ccccc3C(=O)O)c2)CC12CN(C(=O)[C@H]1CC1(C)C)C2)C(=O)N1CCC2(CCNCC2)CC1` [Example I-96] are > 20 µM and < 0.5 µM.
As to `COC(=O)C(C)(C)Oc1ccc(C2CCN(C(=O)[C@@H](NC(=O)[C@@H]3CN(C(=O)c4cnn(Cc5ccc(C(F)(F)F)cc5)c4)CC34CN(C(=O)C3(C(F)(F)F)CC3)C4)[C@@H](C)OCC34CCC(CC3)OC4)CC2)cc1C(F)(F)F` [Example I-98], the values for the IC50 with Kuramochi cells and at CDK2/Cyclin E1 were > 20 µM and > 10 µM, respectively.
On the same counts, the results for `C[C@@H](OCC12CCC(CC1)OC2)[C@H](NC(=O)[C@@H]1CN(C(=O)c2cnn(Cc3ccc(C(F)(F)F)cc3)c2)CC12CN(C(=O)C1(C(F)(F)F)CC1)C2)C(=O)N1CCC(c2ccc(C(=O)O)cc2)CC1` [Example I-99] are > 20 µM and < 0.5 µM.

These data come from patent US20260265262A1, “CDK2 INHIBITORS AND METHODS OF USING THE SAME” (Cedilla Therapeutics, Inc., priority 2022, published 2026).
